Data on eleven molecules can be found in patent publication US7259250B2, “C-nitroso compounds and use thereof” (Duke University, priority 2000, dated 2007).

The subject of data set [1] is rabbit aortic ring (smooth muscle). The experiment in a line: Relaxation of rabbit aortic ring (Example II, tension tracings FIGS. 1-10). It is filed as cell-based. As for the experimental part: The ability of various C-nitroso compounds as described below to relax a rabbit aortic ring (smooth muscle) was carried out as described in Stamler, J., et al., PNAS, Vol. 89, 444-448 (1992).
Results shown in FIGS. 1-10 which are tracings of force (tension) in the Y-direction versus time in the X-direction with downward direction indicating relaxation and upward direction indicating constriction. Concentrations of C-nitroso compound applied at time in the X-direction are indicated as 10^−9 (1 nanomolar), 10^−6 (1 micromolar), 10^−3 (1 milimolar), etc. “PE” on the figures means the application of phenylephrine, a constricting agent.

Data set [2] is described as follows: Water solubility (dissolves in water at least to 1 micromolar). It is filed as physicochemical. As to conditions: water-soluble = dissolves in water at least to 1 micromolar. An excerpt:
As used herein, the term “water-soluble” means dissolves in water at least to provide a concentration of 1 micromolar.

In data set [3] the test system is person with arthritis, esophageal spasm, coronary artery disease, congestive heart failure, impotence and nightly urinary incontinence. As to the kind of experiment: Example III: patient case, ibuprofen partly given as nitrosoketoibuprofen. It is filed as in vivo, human.
The conditions of data set [4]: cited from earlier work.
A further data set concerns person with angina. The experiment in a line: Example IV: patient case, angina with nitrate tolerance. Type of data set: in vivo, human.
Setting [5] is: compound alone, at micromolar concentration(s).

As for `CC(C)(C)N=O` [2-methyl-2-nitrosopropane], in data set [1] (compound alone, at any of the concentrations used, FIG. 10), the “relaxation activity (in words)” value is given as “no relaxation effect activity”. Besides, the “water solubility (in words)” value in data set [2] is “not water soluble”.
In the case of `CC(C(=O)O)c1ccc(C(=O)C(C)(C)[N+]([O-])=[N+]([O-])C(C)(C)C(=O)c2ccc(C(C)C(=O)O)cc2)cc1` (stereo not drawn) [nitrosoketoibuprofen, dimeric 2-[4′-(α-nitroso)isobutyrylphenyl]propionic acid], the “concentration at which relaxation effect is displayed” value in data set [1] (compound alone, FIGS. 5 and 6) turned out to be 10 nM. The “relaxation activity (in words)” value in data set [1] (compound alone, at concentration higher than 10 nanomolar, FIG. 6) was “not much more activity”; in data set [1] (in conjunction with 100 μM glutathione, FIG. 7), “no activity”. For the same molecule, the “activity (in words)” value in data set [1] (without glutathione, at nanomolar concentrations) is given as “therapeutically active”. In addition, the outcome of symptoms in data set [3] (ibuprofen 400 mg three times a day with 0.1% by weight of the drug as the dimeric nitrosoketoibuprofen) is “all symptoms are relieved”.
Take `CC(C)(N=O)C(=O)CCC(=O)Oc1ccccc1C(=O)O` [Compound (129a)]: the “concentration at which relaxation effect is shown” value in data set [1] (compound alone, FIG. 1) turned out to be 10 µM.
As for `CC(=O)C(C)(N=O)C(C)=O` [3-methyl-3-nitroso-2,4-petanedione, 3-methyl-3-nitroso-2,4-pentanedione], the “concentration at which relaxation effect is displayed” value in data set [1] (compound alone) is “greater than 10 micromolar”. Also, the “concentration at which further relaxation effect is displayed” value in data set [1] (compound alone, FIG. 9) was “greater than 100 micromolar”. Besides, the “pKa of the carbon acid from which the C-nitroso compound is obtained” value in data set [4] (pKa of the parent carbon acid, not of the C-nitroso compound) is listed as “less than 10”. Also, the results for the “water solubility (in words)” value in data set [2] and in data set [2] (listed as 3-methyl-3-nitroso-2,4-pentanedione) were “not water soluble” and “do not meet the definition of water solubility”, respectively.
For the molecule `CC(C)Cc1ccc(C(C)C(=O)O)cc1` (centres unmarked) [ibuprofen], in data set [3] (ibuprofen 400 mg, three times a day), the adverse effect entry is “gastrointestinal upset”.
For the molecule `O=[N+]([O-])OCC(CO[N+](=O)[O-])O[N+](=O)[O-]` [nitroglycerin], in the data set with person with angina (angina treated with nitroglycerin), the tolerance development entry is on record as “nitrate tolerance”.
Consider `CC(=O)C1(C)CCC2CCCC[C@@H]2ON1O` (some centres unmarked) [Compound (135a)], for which, in the data set with person with angina (20 μg/min continuously, after nitroglycerin stopped), the outcome of angina is listed as “relief of angina”.
`O=Nc1ccccc1` [C-nitrosobenzene]: the “relaxation activity (in words)” value in data set [1] (setting [5]) was “no activity”.
On the same count and under the same terms, the result for C-nitrosophenol reads “no activity”.
`CCC(N=O)(C(C)=O)C(C)=O` [3-ethyl-3-nitroso-2,4-pentanedione]: the “water solubility (in words)” value in data set [2] was “do not meet the definition of water solubility”.
Take `CC(C)C(=O)c1ccc(C(C)C(=O)O)cc1` (centres unmarked) [2-(4′-isobutyrylphenyl)propionic acid]: the “carbon acid pKa” value in data set [4] (of the named substance itself) is recorded as “about 20”.
